Columns and labels:
[1] = test system: bioptic animal samples (skin, chondrocyte, mucosal and follicular vitality); test: Optical microscopy of cultured biopsies: cytokeratin 10 and 11 expression and haematoxylin/eosin histology; type: cell-based
Method: The bioptic animal samples in the investigation comprised biopsies of: • chronic atrophic cutaneous lesions due to venous stasis (base and margins), • damaged joint cartilage (chronic degenerative osteo-articular arthritis), • terminal cicatricial scalp (post-traumatic or surgical lesions), • hyperkeratosis of the oral cavity (vitamin B deficiency).
All the samples were washed three times with physiological saline and antibiotics (100 units/ml of penicillin+100 μg/ml of streptomycin+160 mg/L gentamycin, fluconazole 0.2 mg/ml) for 10 minutes at ambient temperature.
The biopsies were then sectioned into three parts (two controls, 1 and 2, and one sample, 3, to be treated for each patient) and suspended in a final volume of 25 ml of the corresponding culture solutions within 10 cm slides (Lab-Tek chamber slides, Nunc, Kamstrup, Denmark).
Two types of controls were prepared, an untreated negative control (1), that is one treated with physiological saline and antibiotics only (as described above), and a positive control (2) treated with media for ordinary cell culture for skin biopsies.
2. Positive control: Controlled bioptic specimens 2 were placed between 10 cm slides (Lab-Tek chamber slides, Nunc, Kamstrup, Denmark) in D-MEM medium supplemented with:
3. Samples-1 and -2. Bioptic samples 1 and 2 were placed between 10 cm slides (Lab-Tek chamber slides, Nunc, Kamstrup, Denmark) in medium in a solution of Deina® culture medium (double test). […]
Results relating to the expression of cytokeratin 10 and 11 and histological staining of the bioptic preparations with haematoxylin/eosin (used to display skin, chondrocyte, mucosal and follicular vitality) are shown in Table 6 (CONTROLS) and Table 7 (SAMPLES), and have been expressed using a qualitative and semi-quantitative scale. […]
Samples belonging to the type of the Sample treatment group (Deina®). Median semi-quantitative values for incubation days 7 and 60.

bilateral joint changes = type: in vivo
Method: A clinical trial to evaluate tolerance and efficacy for the compound known as infusional Deina® (composition shown in Table 3) was also performed on a compassionate basis.
Twenty cases (dogs of different breed, size, body weight, sex and age).
The quantity of solution inoculated was equal to the quantity of synovial fluid aspirated and analysed.
a. Time Zero • Collection of case history and clinical examination comprising full blood counts, including LACTATES to check metabolic oxidation, • Radiography of the limb in question, • ROM (Range Of Motion), • Exploratory arthroscopy, • Exclusion of any intra-articular curettage, • Arthrocentesis with removal and morphological/cytological and biochemical examination of the synovial fluid, • Histological examination of a sample of joint cartilage, • Intra-articular inoculation of the solutions tested equal to the quantity of synovial fluid withdrawn and always in the same way (bilateral lesions): of Deina®.
A synovial examination and intra-articular injection of the solution was repeated weekly or for four/eight times, depending on the severity of the initial pathological condition.
b. End of the Treatment Cycle • Arthrocentesis with removal and morphological/cytological and biochemical examination of the synovial fluid, • Histological examination of a sample of joint cartilage, • Radiography of the joint in question, • ROM (Range Of Motion), • Blood lactic acid content, • Clinical examination and recording.

[2] = Deina infusional formulation, intra-articular, weekly four/eight times, 20 dogs

Compound: CC1(CCC(=O)O)C(=O)CCC2C1C(O)CC1(C)C2CCC1(O)C(=O)CO (stereo not drawn) [Deina®, 3-[3,5-Dihydroxy-3-(2-hydroxy-acetyl)-3a,6-dimethyl-7-oxo-dodecahydro-cyclo-penta[alpha]naphthalen-6-yl]-propionic acid]
- cytokeratin 10 and 11 (typical of normal tegument and scalp tissues with vital follicles) ([1]; optical microscopy, Table 7 summary): net predominance
- number of cells (staining with eosin and haematoxylin) ([1]; samples treated for two months, versus controls): net increase
- histological state of the cultured tissue ([1]; short term (7 days) up to two months of culture): trophic, vital and active
- cases in which pain and palpation fell (bilateral joint changes; [2]): 100%
- cases with clinical improvement (bilateral joint changes; [2]): 70%
- cases with increased ROM (Range of Motion) (bilateral joint changes; [2]): 90%
- tolerance (bilateral joint changes; dog, in vivo): optimum tolerance

— patent publication US20120283327A1, “PHARMACEUTICAL COMPOSITIONS AND THERAPEUTIC APPLICATIONS OF A HYDROCORTISONE DERIVATIVE DESIGNATED AS DEINA” (priority 2009, published 2012)
